The target in one data set is T1, ABCC2 (Homo sapiens, UniProt Q92887).
T1 construct: made in house; host or cells: Sf21 insect cells, baculovirus; plasma membrane vesicles
Briefly: ATP-dependent transport of CLF into Sf21 membrane vesicles containing ABCC2. The data set is classed as biochemical. Set-up: Vmax of ABCC2 mediated transport of CLF: unit not given here. The protocol:
The production of recombinant baculovirus was as described by de Waart et al. [Liver Int 2006 April; 26(3):362-368]. ABCC3 and ABCG2-recombinant baculovirus were a kind gift from Borst [Breedveld P. et al., Cancer Res 2004 Aug. 15; 64(16):5804-5811 and Borst P. et al., J Biol Chem 2001 Dec. 7; 276(49):46400-46407.]. ABCB11-recombinant baculovirus was a kind gift from Thompson [Thompson R J et al., Gastroenterology 2002 November; 123(5):1649-1658]. Sf21 cells grown at 27° C. were infected with ABCB11, ABCC2, ABCC3 and ABCG2-cDNA containing baculovirus. Cells were harvested at 2-4 days after infection. Membrane vesicle preparation was as described by de Waart et al. [Liver Int 2006 April; 26(3):362-368].
Transport studies with membrane vesicles were performed using the rapid filtration technique as described by Heijn M et al. [Am J Physiol 1992 January; 262(1 Pt 1):C104-C110]. Radiolabel was measured with a scintillation counter. When CLF was used as a probe, filters were placed in a glass tube, 0.1% Triton-X-100 was added and the tubes vortexed. Samples were pipetted in 96-well plates (Kartell, Noviglio, Italy) and the amount CLF quantitated by measurement of fluorescence at λexe 485 nm and λcm 520 nm using a NovoStar (BMG-labtech, Offenburg, Germany). […]

The target of the next data set is T2, OATP1B3 (Homo sapiens, UniProt Q9NPD5).
T2 construct: expressed in transfected cells; host or cells: CHO cells (stably transfected; Treiber et al. 2007)
T2 sequence (Q9NPD5 1-702): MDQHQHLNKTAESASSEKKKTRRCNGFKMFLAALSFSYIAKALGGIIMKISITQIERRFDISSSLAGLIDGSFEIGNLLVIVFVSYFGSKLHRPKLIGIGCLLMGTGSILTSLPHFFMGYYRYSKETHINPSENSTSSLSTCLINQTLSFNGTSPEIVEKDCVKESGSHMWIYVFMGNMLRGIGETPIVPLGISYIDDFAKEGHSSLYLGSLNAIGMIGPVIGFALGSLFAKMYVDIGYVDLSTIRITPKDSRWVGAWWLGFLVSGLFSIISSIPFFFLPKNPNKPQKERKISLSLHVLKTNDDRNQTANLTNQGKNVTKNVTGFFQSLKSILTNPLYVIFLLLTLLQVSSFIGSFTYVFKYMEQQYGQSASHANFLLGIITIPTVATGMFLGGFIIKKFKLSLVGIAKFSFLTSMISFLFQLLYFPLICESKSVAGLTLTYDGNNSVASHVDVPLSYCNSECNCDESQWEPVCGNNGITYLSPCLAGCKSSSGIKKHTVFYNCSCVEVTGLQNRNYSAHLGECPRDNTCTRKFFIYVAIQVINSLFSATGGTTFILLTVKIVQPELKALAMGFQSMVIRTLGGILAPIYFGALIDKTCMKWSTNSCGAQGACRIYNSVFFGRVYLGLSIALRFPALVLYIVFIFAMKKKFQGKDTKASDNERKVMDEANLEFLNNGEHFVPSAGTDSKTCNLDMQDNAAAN
Briefly: Inhibition by CLF of TC transport in CHO cells expressing OATP1B3. The settings on record: 0, 5 or 50 μmol/L CLF, 10 μmol/L TC. The data set is classed as cell-based. The procedure: FIGS. 3A-3D relate to inhibition of transport activity of hepatocellular uptake transporters by CLF. CHO cells expressing NTCP, OATP1B1, OATP1B3 and OATP2B1 were incubated with 0, 5 or 50 μmol/L CLF and with the substrates, 2.5 μmol/L TC, 1 μmol/L estrone-3-sulfate, 10 μmol/L TC and 1 μmol/L estrone-3-sulfate, respectively. Data represent means±SD of triplicate determinations.
For all transport experiments, cells grown on 3 cm culture dishes were cultured for 24 hours in media supplemented with 5 mmol/L sodium-butyrate to increase expression levels of transfected transporters [Palermo D P et al., J Biotechnol 1991 June; 19(1):35-47]. • Transport experiments with uptake of radioactively labeled substrates: These experiments were performed as described by Huber R D et al. [Am J Physiol Cell Physiol 2007 February; 292(2):C795-C806]. • Transport experiments with uptake of CLF: Uptake was performed in the same buffers as for the radioactive substrates above. […] After complete solubilization, 1.5 ml was used to measure fluorescence in a Perkin-Elmer LS-5 luminescence-spectrometer set at λexe 486 nm (slit 10 nm) and λem 520 nm (slit 5 nm). Protein was determined with the bicinchoninic acid method using a kit from Interchim (Montfuçon, France). […]

Each structure is given as a SMILES string.

T1 sequence (Q92887 whole entry): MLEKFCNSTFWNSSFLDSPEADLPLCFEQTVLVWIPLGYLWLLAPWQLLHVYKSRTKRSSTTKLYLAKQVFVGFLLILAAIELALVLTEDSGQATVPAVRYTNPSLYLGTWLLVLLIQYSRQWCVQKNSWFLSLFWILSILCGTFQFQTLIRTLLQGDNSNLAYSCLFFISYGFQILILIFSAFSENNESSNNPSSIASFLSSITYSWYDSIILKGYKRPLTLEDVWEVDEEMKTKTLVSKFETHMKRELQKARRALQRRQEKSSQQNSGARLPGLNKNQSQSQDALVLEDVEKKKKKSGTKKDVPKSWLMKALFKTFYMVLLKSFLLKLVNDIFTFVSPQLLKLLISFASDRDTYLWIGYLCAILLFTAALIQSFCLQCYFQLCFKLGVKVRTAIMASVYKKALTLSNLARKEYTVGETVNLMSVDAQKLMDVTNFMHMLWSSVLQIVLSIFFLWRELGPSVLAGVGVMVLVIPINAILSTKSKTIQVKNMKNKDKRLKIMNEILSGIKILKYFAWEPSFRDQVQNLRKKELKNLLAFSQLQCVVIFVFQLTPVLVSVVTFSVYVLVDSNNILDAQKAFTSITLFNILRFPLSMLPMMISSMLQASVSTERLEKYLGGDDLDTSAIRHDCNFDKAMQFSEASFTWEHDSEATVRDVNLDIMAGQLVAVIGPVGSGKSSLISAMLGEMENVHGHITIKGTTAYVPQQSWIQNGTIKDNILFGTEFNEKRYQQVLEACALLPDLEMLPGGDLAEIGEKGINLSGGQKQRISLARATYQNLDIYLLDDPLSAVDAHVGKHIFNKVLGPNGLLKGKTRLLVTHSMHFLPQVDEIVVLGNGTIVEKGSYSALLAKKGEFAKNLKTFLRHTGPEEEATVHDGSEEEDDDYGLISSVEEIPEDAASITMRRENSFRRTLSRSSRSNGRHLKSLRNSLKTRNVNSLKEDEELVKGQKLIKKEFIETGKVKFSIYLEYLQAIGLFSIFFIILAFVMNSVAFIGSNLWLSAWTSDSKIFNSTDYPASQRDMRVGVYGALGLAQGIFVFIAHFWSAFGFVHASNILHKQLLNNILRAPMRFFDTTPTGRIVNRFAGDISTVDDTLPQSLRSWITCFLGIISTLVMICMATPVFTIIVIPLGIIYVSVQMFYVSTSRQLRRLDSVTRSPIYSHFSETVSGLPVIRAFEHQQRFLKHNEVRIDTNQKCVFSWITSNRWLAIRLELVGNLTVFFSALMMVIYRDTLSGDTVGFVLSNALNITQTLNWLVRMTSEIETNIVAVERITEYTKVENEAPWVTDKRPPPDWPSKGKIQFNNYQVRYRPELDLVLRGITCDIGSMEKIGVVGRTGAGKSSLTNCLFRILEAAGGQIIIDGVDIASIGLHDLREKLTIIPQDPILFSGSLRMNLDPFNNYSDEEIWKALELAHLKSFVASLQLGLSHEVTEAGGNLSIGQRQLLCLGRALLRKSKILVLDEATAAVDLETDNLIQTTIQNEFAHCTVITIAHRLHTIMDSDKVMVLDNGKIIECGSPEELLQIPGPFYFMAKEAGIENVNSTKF

Regarding `CC(CCC(=O)NC(CCCCNC(=S)Nc1ccc(-c2c3ccc(=O)cc-3oc3cc(O)ccc23)c(C(=O)O)c1)C(=O)O)C1CCC2C3C(O)CC4CC(O)CCC4(C)C3CC(O)C12C` (stereo not drawn) [CLF, cholyl lysyl fluorescein], the “Vmax of ABCC2 mediated transport of CLF” value at ABCC2 (10 μg total protein, presence or absence of 4 mmol/L ATP) was 436±215. In addition, the “CLF transport in ABCC2 containing membrane vesicles” value at ABCC2 (compared to control wild type Sf21 membrane vesicles) is “much higher CLF transport rates”. Moreover, the “inhibition of transport of TC mediated by OATP1B3 by CLF” value on OATP1B3 is reported as “inhibited by CLF in a dose-dependent manner”.

The values are drawn from patent publication US8318504B2, “MRP2 efflux pathway prognostic method” (priority 2009, dated 2012).
